In patent US10351575B2, “Bicyclic urea, thiourea, guanidine and cyanoguanidine compounds useful for the treatment of pain” (Array BioPharma Inc., priority 2012, dated 2019):

What was measured:
Test in all cases: KinaseProfiler off-target kinase profiling
Type in all cases: biochemical
Conditions in all cases: 10 μM, ATP near Km
Axl = Axl (Homo sapiens (Human), UniProt P30530)
In short: (§1)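 Single-point profiling: the compound is run at 10 μM against the kinase, ATP being set near that enzyme's Km. Duplicate determinations are averaged and expressed as POC.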

BTK = BTK (Homo sapiens (Human), UniProt Q06187)
BTK, sequence (Q06187 whole entry): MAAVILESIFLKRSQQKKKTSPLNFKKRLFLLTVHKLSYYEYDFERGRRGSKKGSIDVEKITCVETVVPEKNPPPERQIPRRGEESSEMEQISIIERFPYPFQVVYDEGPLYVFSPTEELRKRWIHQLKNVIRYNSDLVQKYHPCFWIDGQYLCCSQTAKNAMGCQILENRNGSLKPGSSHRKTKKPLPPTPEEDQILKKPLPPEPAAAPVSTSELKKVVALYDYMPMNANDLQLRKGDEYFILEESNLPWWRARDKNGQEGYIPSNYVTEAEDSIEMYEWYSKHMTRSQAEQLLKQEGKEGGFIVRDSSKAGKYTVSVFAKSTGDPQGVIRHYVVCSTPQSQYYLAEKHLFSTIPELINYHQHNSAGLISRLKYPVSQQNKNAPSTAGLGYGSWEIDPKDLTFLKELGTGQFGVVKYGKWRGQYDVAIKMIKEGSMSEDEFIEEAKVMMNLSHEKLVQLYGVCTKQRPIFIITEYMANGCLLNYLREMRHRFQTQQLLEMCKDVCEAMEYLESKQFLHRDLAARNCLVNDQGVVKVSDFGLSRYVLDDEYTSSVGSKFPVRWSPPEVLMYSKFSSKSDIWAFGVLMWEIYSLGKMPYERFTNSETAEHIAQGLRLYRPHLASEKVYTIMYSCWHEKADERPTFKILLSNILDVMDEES
In short: as §1

CAMK2g = CAMK2g (Homo sapiens (Human), UniProt Q13555)
In short: as §1

CDK9/cyclinT1 = CDK9/cyclinT1 (Homo sapiens (Human), UniProt P50750)
In short: as §1

DCAMKL2 = DCAMKL2 (Homo sapiens (Human), UniProt Q8N568)
In short: as §1

EphA2 = EphA2 (Homo sapiens (Human), UniProt P29317)
In short: as §1

EphA4 = EphA4 (Homo sapiens (Human), UniProt P54764)
In short: as §1

EphA8 = EphA8 (Homo sapiens (Human), UniProt P29322)
In short: as §1

FGFR2 = FGFR2 (Homo sapiens (Human), UniProt P21802)
In short: as §1

FGFR3 = FGFR3 (Homo sapiens (Human), UniProt P22607)
In short: as §1

Flt3 = Flt3 (Homo sapiens (Human), UniProt P36888)
In short: as §1

Flt4 = Flt4 (Homo sapiens (Human), UniProt P35916)
In short: as §1

GRK5 = GRK5 (Homo sapiens (Human), UniProt P34947)
In short: as §1

GSK3beta = GSK3beta (Homo sapiens (Human), UniProt P49841)
In short: as §1

IR Activated = IR Activated (Homo sapiens (Human), UniProt P06213)
In short: as §1

IRAK1 = IRAK1 (Homo sapiens (Human), UniProt P51617)
In short: as §1

JNK3 = JNK3 (Homo sapiens (Human), UniProt P53779)
In short: as §1

MAP4K2 = MAP4K2 (Homo sapiens (Human), UniProt Q12851)
MAP4K2, sequence (Q12851 whole entry): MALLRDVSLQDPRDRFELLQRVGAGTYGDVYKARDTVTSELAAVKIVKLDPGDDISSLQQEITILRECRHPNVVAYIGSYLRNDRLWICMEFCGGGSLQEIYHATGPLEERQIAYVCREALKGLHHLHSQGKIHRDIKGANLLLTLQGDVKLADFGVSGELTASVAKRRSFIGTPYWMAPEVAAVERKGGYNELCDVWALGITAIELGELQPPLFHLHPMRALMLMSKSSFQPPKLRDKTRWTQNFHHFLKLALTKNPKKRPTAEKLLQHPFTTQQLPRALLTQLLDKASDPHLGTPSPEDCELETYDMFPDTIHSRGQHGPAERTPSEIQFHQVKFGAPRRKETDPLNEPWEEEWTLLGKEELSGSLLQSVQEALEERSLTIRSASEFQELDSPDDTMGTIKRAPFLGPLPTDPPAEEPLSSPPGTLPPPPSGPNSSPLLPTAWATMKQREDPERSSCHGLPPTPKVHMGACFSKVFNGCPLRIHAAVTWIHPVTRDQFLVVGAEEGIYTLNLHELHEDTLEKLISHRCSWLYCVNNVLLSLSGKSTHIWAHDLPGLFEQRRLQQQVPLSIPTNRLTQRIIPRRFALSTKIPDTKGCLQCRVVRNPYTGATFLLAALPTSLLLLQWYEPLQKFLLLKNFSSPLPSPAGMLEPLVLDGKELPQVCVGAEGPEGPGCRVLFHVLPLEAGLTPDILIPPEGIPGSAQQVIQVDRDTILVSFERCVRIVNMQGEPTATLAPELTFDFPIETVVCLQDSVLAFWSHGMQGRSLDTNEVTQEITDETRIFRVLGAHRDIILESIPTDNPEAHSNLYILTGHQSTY
In short: as §1

MEK1 = MEK1 (Homo sapiens (Human), UniProt Q02750)
MEK1, sequence (Q02750 whole entry): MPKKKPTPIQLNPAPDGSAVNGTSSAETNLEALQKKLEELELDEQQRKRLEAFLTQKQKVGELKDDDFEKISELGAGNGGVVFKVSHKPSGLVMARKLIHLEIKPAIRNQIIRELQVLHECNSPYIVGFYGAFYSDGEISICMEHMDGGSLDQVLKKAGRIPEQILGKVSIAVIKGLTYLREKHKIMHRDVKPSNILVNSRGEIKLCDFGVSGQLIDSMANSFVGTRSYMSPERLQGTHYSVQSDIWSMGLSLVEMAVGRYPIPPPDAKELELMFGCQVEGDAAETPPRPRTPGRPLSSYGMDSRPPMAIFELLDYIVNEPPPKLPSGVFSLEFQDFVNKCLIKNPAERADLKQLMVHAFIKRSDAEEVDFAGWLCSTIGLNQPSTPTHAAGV
In short: as §1

MKK7beta = MKK7beta (Homo sapiens (Human), UniProt O14733)
In short: as §1

MLK1 = MLK1 (Homo sapiens (Human), UniProt P80192)
In short: as §1

MSK1 = MSK1 (Homo sapiens (Human), UniProt O75582)
In short: as §1

MST2 = MST2 (Homo sapiens (Human), UniProt Q13188)
In short: as §1

Met = Met (Homo sapiens (Human), UniProt P08581)
In short: as §1

NEK11 = NEK11 (Homo sapiens (Human), UniProt Q8NG66)
NEK11, sequence (Q8NG66 whole entry): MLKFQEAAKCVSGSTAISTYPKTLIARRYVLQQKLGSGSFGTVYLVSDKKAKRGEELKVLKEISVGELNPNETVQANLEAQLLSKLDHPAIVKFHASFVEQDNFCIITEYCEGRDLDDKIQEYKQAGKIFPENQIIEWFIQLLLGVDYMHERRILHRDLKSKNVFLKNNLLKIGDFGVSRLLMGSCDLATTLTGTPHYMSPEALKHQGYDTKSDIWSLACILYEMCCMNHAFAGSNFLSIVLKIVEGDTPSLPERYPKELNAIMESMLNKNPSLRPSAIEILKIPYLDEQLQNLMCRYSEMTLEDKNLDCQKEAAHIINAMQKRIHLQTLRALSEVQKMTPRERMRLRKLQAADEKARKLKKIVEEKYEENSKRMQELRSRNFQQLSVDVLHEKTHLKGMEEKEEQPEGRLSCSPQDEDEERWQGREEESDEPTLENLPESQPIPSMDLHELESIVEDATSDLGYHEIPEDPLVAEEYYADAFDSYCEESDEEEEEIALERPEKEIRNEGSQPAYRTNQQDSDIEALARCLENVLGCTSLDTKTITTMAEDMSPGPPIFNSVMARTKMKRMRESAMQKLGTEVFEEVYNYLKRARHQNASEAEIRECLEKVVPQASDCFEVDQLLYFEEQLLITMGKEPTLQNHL
In short: as §1

NEK2 = NEK2 (Homo sapiens (Human), UniProt P51955)
In short: as §1

NEK3 = NEK3 (Homo sapiens (Human), UniProt P51956)
In short: as §1

PKD2 = PKD2 (Homo sapiens (Human), UniProt Q9BZL6)
In short: as §1

PTK6 = PTK6 (Homo sapiens (Human), UniProt Q13882)
In short: as §1

RIPK2 = RIPK2 (Homo sapiens (Human), UniProt O43353)
In short: as §1

Ron = Ron (Homo sapiens (Human), UniProt Q04912)
In short: as §1

Syk = Syk (Homo sapiens (Human), UniProt P43405)
In short: as §1

TAK1 = TAK1 (Homo sapiens (Human), UniProt O43318)
TAK1, sequence (O43318 1-303): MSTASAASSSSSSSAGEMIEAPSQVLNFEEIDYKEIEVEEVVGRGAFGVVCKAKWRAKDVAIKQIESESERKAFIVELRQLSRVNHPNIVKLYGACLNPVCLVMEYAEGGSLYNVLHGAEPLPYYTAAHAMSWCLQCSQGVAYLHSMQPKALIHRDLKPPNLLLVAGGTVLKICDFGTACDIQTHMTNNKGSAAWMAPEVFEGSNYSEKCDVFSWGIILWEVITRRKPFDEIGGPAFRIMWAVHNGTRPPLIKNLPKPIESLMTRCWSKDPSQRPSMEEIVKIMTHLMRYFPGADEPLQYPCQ
TAK1, sequence (Q15750 437-504 partner): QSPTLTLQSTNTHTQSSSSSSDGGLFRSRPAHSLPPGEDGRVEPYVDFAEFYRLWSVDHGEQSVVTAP
In short: as §1

TAO3 = TAO3 (Homo sapiens (Human), UniProt Q9H2K8)
In short: as §1

ULK3 = ULK3 (Homo sapiens (Human), UniProt Q6PHR2)
In short: as §1

WNK3 = WNK3 (Homo sapiens (Human), UniProt Q9BYP7)
WNK3, sequence (Q9BYP7 whole entry): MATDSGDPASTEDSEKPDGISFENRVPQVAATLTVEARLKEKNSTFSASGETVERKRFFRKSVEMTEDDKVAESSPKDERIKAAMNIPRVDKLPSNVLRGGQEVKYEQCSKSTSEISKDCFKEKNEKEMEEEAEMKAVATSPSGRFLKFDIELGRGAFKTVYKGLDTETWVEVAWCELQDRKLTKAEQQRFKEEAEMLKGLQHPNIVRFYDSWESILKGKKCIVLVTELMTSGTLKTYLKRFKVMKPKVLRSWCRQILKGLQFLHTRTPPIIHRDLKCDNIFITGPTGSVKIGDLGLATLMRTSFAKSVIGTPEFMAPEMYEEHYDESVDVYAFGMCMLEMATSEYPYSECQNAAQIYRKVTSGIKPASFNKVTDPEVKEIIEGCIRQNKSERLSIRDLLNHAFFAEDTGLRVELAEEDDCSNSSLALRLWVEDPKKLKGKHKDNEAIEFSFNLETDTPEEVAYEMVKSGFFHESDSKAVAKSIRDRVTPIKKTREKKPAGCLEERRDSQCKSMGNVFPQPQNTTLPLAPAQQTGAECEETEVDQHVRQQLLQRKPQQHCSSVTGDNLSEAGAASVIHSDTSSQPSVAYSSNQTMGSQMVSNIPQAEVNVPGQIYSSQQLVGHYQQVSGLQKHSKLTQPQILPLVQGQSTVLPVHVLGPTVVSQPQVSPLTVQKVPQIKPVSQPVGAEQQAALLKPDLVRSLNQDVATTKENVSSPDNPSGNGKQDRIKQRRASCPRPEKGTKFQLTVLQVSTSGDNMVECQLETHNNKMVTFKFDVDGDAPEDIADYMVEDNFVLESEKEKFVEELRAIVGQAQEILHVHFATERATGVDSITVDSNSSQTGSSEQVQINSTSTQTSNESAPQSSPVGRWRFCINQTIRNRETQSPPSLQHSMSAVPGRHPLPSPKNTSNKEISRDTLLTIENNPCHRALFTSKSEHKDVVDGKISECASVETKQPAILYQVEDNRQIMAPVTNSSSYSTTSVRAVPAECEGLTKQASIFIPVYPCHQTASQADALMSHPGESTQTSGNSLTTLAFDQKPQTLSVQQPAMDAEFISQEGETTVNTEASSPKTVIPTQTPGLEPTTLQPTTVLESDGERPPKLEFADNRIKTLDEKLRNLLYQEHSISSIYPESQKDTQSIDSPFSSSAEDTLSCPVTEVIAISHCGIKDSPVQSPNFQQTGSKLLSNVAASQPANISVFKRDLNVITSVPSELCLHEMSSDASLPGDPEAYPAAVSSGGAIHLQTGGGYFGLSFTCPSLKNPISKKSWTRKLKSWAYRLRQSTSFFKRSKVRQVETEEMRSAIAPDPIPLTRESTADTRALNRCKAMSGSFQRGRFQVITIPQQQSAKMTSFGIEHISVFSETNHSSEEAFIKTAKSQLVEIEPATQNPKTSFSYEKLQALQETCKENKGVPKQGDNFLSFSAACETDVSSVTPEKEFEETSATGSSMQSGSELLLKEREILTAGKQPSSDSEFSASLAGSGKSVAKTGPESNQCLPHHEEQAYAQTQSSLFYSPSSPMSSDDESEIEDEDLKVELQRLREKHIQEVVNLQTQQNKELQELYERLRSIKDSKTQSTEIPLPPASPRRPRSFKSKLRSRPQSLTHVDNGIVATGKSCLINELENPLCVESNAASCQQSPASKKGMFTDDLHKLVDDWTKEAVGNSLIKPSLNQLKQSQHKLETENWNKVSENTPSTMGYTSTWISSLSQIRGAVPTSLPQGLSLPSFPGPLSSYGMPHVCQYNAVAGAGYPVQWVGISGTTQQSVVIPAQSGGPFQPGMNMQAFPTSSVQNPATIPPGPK
In short: as §1

ZAP-70 = ZAP-70 (Homo sapiens (Human), UniProt P43403)
In short: as §1

mTOR = mTOR (Homo sapiens (Human), UniProt P42345)
In short: as §1

p38beta = p38beta (Homo sapiens (Human), UniProt Q15759)
p38beta, sequence (Q15759 whole entry): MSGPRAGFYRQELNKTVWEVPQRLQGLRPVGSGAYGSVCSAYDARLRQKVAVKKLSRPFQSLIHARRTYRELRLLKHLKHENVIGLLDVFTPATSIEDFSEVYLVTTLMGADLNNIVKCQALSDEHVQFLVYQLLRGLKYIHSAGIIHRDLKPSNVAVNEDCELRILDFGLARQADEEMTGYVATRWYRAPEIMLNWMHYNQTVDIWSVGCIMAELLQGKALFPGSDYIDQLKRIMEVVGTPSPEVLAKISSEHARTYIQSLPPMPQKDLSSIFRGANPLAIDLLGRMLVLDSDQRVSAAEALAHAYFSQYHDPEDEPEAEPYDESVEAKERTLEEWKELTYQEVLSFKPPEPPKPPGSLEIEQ
In short: as §1

| Avg. POC (Axl) [POC] | Avg. POC (BTK) [POC] | Avg. POC (CAMK2g) [POC] | Avg. POC (CDK9/cyclinT1) [POC] | Avg. POC (DCAMKL2) [POC] | Avg. POC (EphA2) [POC] | Avg. POC (EphA4) [POC] | Avg. POC (EphA8) [POC] | Avg. POC (FGFR2) [POC] | Avg. POC (FGFR3) [POC] | Avg. POC (Flt3) [POC] | Avg. POC (Flt4) [POC] | Avg. POC (GRK5) [POC] | Avg. POC (GSK3beta) [POC] | Avg. POC (IR Activated) [POC] | Avg. POC (IRAK1) [POC] | Avg. POC (JNK3) [POC] | Avg. POC (MAP4K2) [POC] | Avg. POC (MEK1) [POC] | Avg. POC (MKK7beta) [POC] | also measured | SMILES |
| --- | --- | --- | --- | --- | --- | --- | --- | --- | --- | --- | --- | --- | --- | --- | --- | --- | --- | --- | --- | --- | --- |
| 113.5 | 111.5 | 107.5 | 127 | 157.5 | 129 | 111.5 | 128.5 | 112.5 | 113.5 | 96.5 | 99 | 106.5 | 126 | 103 | 107 | 117.5 | 110 | 100.5 | 129.5 | Avg. POC (MLK1): 75 POC; Avg. POC (MSK1): 113.5 POC; Avg. POC (MST2): 110.5 POC; Avg. POC (Met): 148.5 POC; Avg. POC (NEK11): 108.5 POC; Avg. POC (NEK2): 104 POC; Avg. POC (NEK3): 105 POC; Avg. POC (PKD2): 102 POC; Avg. POC (PTK6): 129 POC; Avg. POC (RIPK2): 108 POC; Avg. POC (Ron): 106.5 POC; Avg. POC (Syk): 115 POC; Avg. POC (TAK1): 106 POC; Avg. POC (TAO3): 111 POC; Avg. POC (ULK3): 105 POC; Avg. POC (WNK3): 109.5 POC; Avg. POC (ZAP-70): 124 POC; Avg. POC (mTOR): 116 POC; Avg. POC (p38beta): 113 POC | Cc1c(-c2cnn(C)c2)nn(-c2ccccc2)c1NC(=O)N[C@H]1CCCc2ccccc21 [Example 2, (S)-1-(1′,4-dimethyl-1-phenyl-1H,1′H-3,4′-bipyrazol-5-yl)-3-(1,2,3,4-tetrahydronaphthalen-1-yl)urea] |
| 106 | 127 | 107.5 | 106 | 169 | 113 | 114.5 | 122.5 | 114 | 109 | 90 | 83.5 | 83.5 | 109.5 | 109 | 102.5 | 107.5 | 107.5 | 106.5 | 122.5 | Avg. POC (MLK1): 103.5 POC; Avg. POC (MSK1): 127.5 POC; Avg. POC (MST2): 106.5 POC; Avg. POC (Met): 109 POC; Avg. POC (NEK11): 84.5 POC; Avg. POC (NEK2): 91.5 POC; Avg. POC (NEK3): 102 POC; Avg. POC (PKD2): 94 POC; Avg. POC (PTK6): 125.5 POC; Avg. POC (RIPK2): 99 POC; Avg. POC (Ron): 116.5 POC; Avg. POC (Syk): 108.5 POC; Avg. POC (TAK1): 97 POC; Avg. POC (TAO3): 99 POC; Avg. POC (ULK3): 89.5 POC; Avg. POC (WNK3): 112.5 POC; Avg. POC (ZAP-70): 140 POC; Avg. POC (mTOR): 104.5 POC; Avg. POC (p38beta): 115.5 POC | Cc1c(-c2cnn(C)c2)nn(-c2ccccc2)c1NC(=O)NC1CCOc2cc(F)ccc21 (stereo not drawn) [Example 12, 1-(1′,4-dimethyl-1-phenyl-1H,1′H-[3,4′-bipyrazol]-5-yl)-3-(7-fluorochroman-4-yl)urea] |
| 107 | 139 | 101 | 112.5 | 135 | 102 | 110 | 118.5 | 112 | 101 | 97.5 | 106 | 86 | 124.5 | 106 | 110.5 | 116 | 121 | 97 | 144.5 | Avg. POC (MLK1): 105.5 POC; Avg. POC (MSK1): 114 POC; Avg. POC (MST2): 111 POC; Avg. POC (Met): 81 POC; Avg. POC (NEK11): 113.5 POC; Avg. POC (NEK2): 100.5 POC; Avg. POC (NEK3): 105 POC; Avg. POC (PKD2): 102 POC; Avg. POC (PTK6): 121 POC; Avg. POC (RIPK2): 98 POC; Avg. POC (Ron): 101 POC; Avg. POC (Syk): 93.5 POC; Avg. POC (TAK1): 108.5 POC; Avg. POC (TAO3): 109 POC; Avg. POC (ULK3): 92.5 POC; Avg. POC (WNK3): 103.5 POC; Avg. POC (ZAP-70): 120.5 POC; Avg. POC (mTOR): 102.5 POC; Avg. POC (p38beta): 115.5 POC | Cc1c(-c2ccc(=O)n(C)c2)nn(-c2ccccc2)c1NC(=O)NC1CN(CC(F)(F)F)Cc2ccccc21 (stereo not drawn) [Example 26, 1-(4-methyl-3-(1-methyl-6-oxo-1,6-dihydropyridin-3-yl)-1-phenyl-1H-pyrazol-5-yl)-3-(2-(2,2,2-trifluoroethyl)-1,2,3,4-tetrahydroisoquinolin-4-yl)urea] |
| 119.5 | 119 | 105 | 106.5 | 146 | 118 | 103 | 109 | 110.5 | 107 | 115 | 98 | 90 | 84.5 | 111.5 | 113.5 | 104 | 119.5 | 102 | 138.5 | Avg. POC (MLK1): 104.5 POC; Avg. POC (MSK1): 118 POC; Avg. POC (MST2): 111.5 POC; Avg. POC (Met): 118.5 POC; Avg. POC (NEK11): 108 POC; Avg. POC (NEK2): 108 POC; Avg. POC (NEK3): 113 POC; Avg. POC (PKD2): 110.5 POC; Avg. POC (PTK6): 100 POC; Avg. POC (RIPK2): 99.5 POC; Avg. POC (Ron): 107 POC; Avg. POC (Syk): 115 POC; Avg. POC (TAK1): 99.5 POC; Avg. POC (TAO3): 105 POC; Avg. POC (ULK3): 92 POC; Avg. POC (WNK3): 103.5 POC; Avg. POC (ZAP-70): 124 POC; Avg. POC (mTOR): 94.5 POC; Avg. POC (p38beta): 119 POC | COCc1ccc2c(c1)C(NC(=O)Nc1c(C)c(-c3cnn(C)c3)nn1-c1ccccc1)COC2 (stereo not drawn) [Example 32, 1-(1′,4-dimethyl-1-phenyl-1H,1′H-[3,4′-bipyrazol]-5-yl)-3-(6-(methoxymethyl)isochroman-4-yl)urea] |
